For 22 molecules, inhibition and pest or weed control results are on record in patent US5484934A, “Isothiazole derivatives, a process for production thereof and uses thereof” (Nihon Nohyaku Co., Ltd., priority 1992, dated 1996).

Usually inhibition stands for the relative decrease from the control value, in per cent.

For one assay, the system named is Aspergillus niger. The assay can be described thus: Inhibition of hypha growth on malt extract agar, Aspergillus niger. As to conditions: read-out: Controlling effect (growth inhibition rate) ASN.
Another assay deals with Botrytis cinerea. As to the kind of experiment: Controlling effect (curing effect) on cucumber gray mold. In kind it is in vivo. As to conditions: 72 h, immersion of inoculated cotyledons, 15° C., read-out: Controlling effect Bc (cucumber gray mold). As for the experimental part: Controlling effect (curing effect) on cucumber gray mold The cotyledons of potted cucumber plants at the 1 leaf stage were cut off and each of them was inoculated with a mycelial tuft of gray mold fungus (Botrytis cinerea) cultured on PSA medium. After having been placed in a moist chamber at 15° C. for 24 hours, the cotyledons were immersed in a 200 ppm liquid chemical containing each compound of the present invention as active ingredient. […]

The test system of the next assay is Rhizopus nigricans. As to the kind of experiment: Inhibition of hypha growth on malt extract agar, Rhizopus nigricans. To be noted: Rhizopus stolonifer, read-out: Controlling effect (growth inhibition rate) RHS.
For the next assay, the system named is Phytophthora infestants. The assay can be described thus: whole plant or invertebrate. To be noted: 168 h; read-out: Controlling effect Pi (tomato late blight). The class given is in vivo.
In another assay the test system is Serpula lacrymans. The assay can be described thus: Inhibition of hypha growth on malt extract agar, Serpula lacrymans. To be noted: read-out: Controlling effect (growth inhibition rate) SEL.
A further assay has as its system Alternaria mali. As to the kind of experiment: Inhibition of hypha growth on malt extract agar, Alternaria mali. As to conditions: read-out: Controlling effect (growth inhibition rate) ALM.
A further assay has as its system Coriolus versicolor. As to the kind of experiment: Inhibition of hypha growth on malt extract agar, Coriolus versicolor. The class given is cell-based. To be noted: Trametes versicolor, 28±2° C., 2 to 10 days, read-out: Controlling effect (growth inhibition rate) COV.
The test system of assay [1] is Cladosporium cladosporioides. The assay can be described thus: Inhibition of hypha growth on malt extract agar, Cladosporium cladosporioides. As to conditions: read-out: Controlling effect (growth inhibition rate) CLC.
Description: (§1) Each preparation to be tested was added to malt extract agar medium to adjust the concentration to 50 ppm, and the resulting mixture was dispensed into Petri dishes. As an inoculum, a prepared mycerial tuft of each test fungus was punched out together with agar by means of a 4-mm-diameter cork borer and inoculated on medium. The incubation temperature was adjusted to 28±2° .C (or 18±2° C. in the case of Selupula lacrymas).
(§2) The diameter of mycerial tuft was measured 2 to 10 days after the inoculation, and the inhibition rate of hypha growth (the following equation) was measured.
In a further assay the test system is Pyricularia oryzae. As to the kind of experiment: whole plant or invertebrate. The class given is in vivo. To be noted: 168 h, read-out: Controlling effect Ps (rice blast).
Assay [2] deals with Pseudoperonospora cubensis. As to the kind of experiment: Controlling effect on cucumber Downy mildew. As to conditions: 168 h, 200 ppm spray, inoculation after 24 hours, read-out: Controlling effect Pc (cucumber downy mildew). The class given is in vivo.
In the next assay the test system is Chaetomium globosum. The assay can be described thus: Inhibition of hypha growth on malt extract agar, Chaetomium globosum. To be noted: read-out: Controlling effect (growth inhibition rate) CHG.
A further assay deals with Fusarium oxysporum. As to the kind of experiment: Inhibition of hypha growth on malt extract agar, Fusarium oxysporum. To be noted: read-out: Controlling effect (growth inhibition rate) FUO.
Another assay deals with Tyromyces palustris. The assay can be described thus: Inhibition of hypha growth on malt extract agar, Tyromyces palustris. As to conditions: read-out: Controlling effect (growth inhibition rate) TYP.
Another assay relates to Trichoderma viride. As to the kind of experiment: Inhibition of hypha growth on malt extract agar, Trichoderma viride. As to conditions: read-out: Controlling effect (growth inhibition rate) TRV.

Description for Alternaria mali: as §1, §2
(§3) The controlling effect was evaluated according to the following criterion.
Description for Aspergillus niger: as §1, §2, §3
Description for Chaetomium globosum: as §1, §2, §3
Description for Fusarium oxysporum: as §1, §2, §3
Description for Rhizopus nigricans: as §1, §2
Description for Serpula lacrymans: as §1, §2
Description for Trichoderma viride: as §1, §2
Description for Tyromyces palustris: as §1, §2

Take `N#Cc1c(O)nsc1S(=O)(=O)c1ccccc1` [Compound 1, 3-hydroxy-4-cyano-5-phenylsulfonylisothiazole]: the inhibition at 50 ppm in the assay on Aspergillus niger was in the range of 55 to 84%; with Rhizopus nigricans, 85 to 99%; with Serpula lacrymans, 85 to 99%; in the assay on Alternaria mali, 55 to 84%; in the assay with Coriolus versicolor, 85 to 99%; in [1], 55 to 84%. Besides, the inhibition at 50 ppm lay in the range of 85 to 99% in the assay with Chaetomium globosum, 55 to 84% in the assay with Fusarium oxysporum, 55 to 84% in the assay with Tyromyces palustris and 85 to 99% in the assay with Trichoderma viride. The pest or weed control at 200 ppm lay within 0 to 59% in the assay with Botrytis cinerea, 60 to 79% in the assay with Phytophthora infestants, 80 to 94% in the assay on Pyricularia oryzae and 60 to 79% in assay [2].

Turning to `CCOC(=O)c1ccccc1S(=O)(=O)c1snc(O)c1C#N` [Compound 5], the pest or weed control at 200 ppm in the assay on Botrytis cinerea was in the range of 0 to 59%; in the assay on Phytophthora infestants it was 80 to 94%; with Pyricularia oryzae it was 60 to 79%; in assay [2], 60 to 79%.

On to `COc1nsc([S+](C)[O-])c1C#N` (stereo not drawn) [Compound 15, 3-methoxy-4-cyano-5-methylsulfoxyisothiazole], for which the inhibition at 50 ppm (with Aspergillus niger; in the assay with Rhizopus nigricans; in the assay on Serpula lacrymans; in the assay on Alternaria mali; with Coriolus versicolor; in [1]) was 100% each time. The inhibition at 50 ppm in the assay with Chaetomium globosum, in the assay on Fusarium oxysporum, with Tyromyces palustris and in the assay on Trichoderma viride was 100% each time. The pest or weed control at 200 ppm lay within 60 to 79% in the assay with Botrytis cinerea, 95 to 100% in the assay with Phytophthora infestants, 95 to 100% with Pyricularia oryzae and 95 to 100% in assay [2].

`CCOc1nsc(S(C)(=O)=O)c1C#N` [Compound 21]: the pest or weed control at 200 ppm with Botrytis cinerea lay within 60 to 79%; in the assay with Phytophthora infestants, 95 to 100%; with Pyricularia oryzae, 95 to 100%; in assay [2], 95 to 100%.

In the case of `CCOc1nsc(S(=O)(=O)CC)c1C#N` [Compound 23], the pest or weed control at 200 ppm in the assay with Botrytis cinerea lay in the range of 60 to 79%; with Phytophthora infestants it was 95 to 100%; in the assay on Pyricularia oryzae, 95 to 100%; in [2], 95 to 100%.

Take `CCS(=O)(=O)c1snc(OC(F)F)c1C#N` [Compound 25]: the pest or weed control at 200 ppm in the assay on Botrytis cinerea lay in the range of 60 to 79%; with Phytophthora infestants it was 95 to 100%; with Pyricularia oryzae, 80 to 94%; in [2], 95 to 100%.

For the molecule `CC(C)S(=O)(=O)c1snc(OC(F)F)c1C#N` [Compound 27], the pest or weed control at 200 ppm lay within 0 to 59% in the assay with Botrytis cinerea, 95 to 100% in the assay on Phytophthora infestants, 95 to 100% in the assay with Pyricularia oryzae and 80 to 94% in assay [2].

Turning to `COc1nsc(S(=O)(=O)C(C)C)c1C#N` [Compound 35], the pest or weed control at 200 ppm in the assay on Botrytis cinerea fell in the range of 0 to 59%; in the assay on Phytophthora infestants it was 95 to 100%; in the assay with Pyricularia oryzae it was 95 to 100%; in assay [2], 95 to 100%.

Turning to `CCS(=O)(=O)c1snc(OC)c1C#N` [Compound 37], the pest or weed control at 200 ppm fell in the range of 0 to 59% in the assay on Botrytis cinerea, 95 to 100% with Phytophthora infestants, 95 to 100% with Pyricularia oryzae and 95 to 100% in assay [2].

`CCOc1nsc(S(=O)(=O)C(C)C)c1C#N` [Compound 38]: the pest or weed control at 200 ppm with Botrytis cinerea fell in the range of 60 to 79%; in the assay on Phytophthora infestants it was 95 to 100%; in the assay with Pyricularia oryzae, 95 to 100%; in assay [2] it was 95 to 100%.

Regarding `CCCCS(=O)(=O)c1snc(OC(C)C)c1C#N` [Compound 52], the pest or weed control at 200 ppm fell in the range of 60 to 79% with Botrytis cinerea, 95 to 100% in the assay on Phytophthora infestants, 80 to 94% with Pyricularia oryzae and 95 to 100% in [2].

With `C#CCOc1nsc(S(=O)(=O)CC)c1C#N` [Compound 58], the pest or weed control at 200 ppm with Botrytis cinerea fell in the range of 0 to 59%; with Phytophthora infestants, 95 to 100%; with Pyricularia oryzae, 80 to 94%; in assay [2], 95 to 100%.

With `COc1nsc(S(=O)(=O)c2ccc(C)cc2)c1C#N` [Compound 90, 3-methoxy-4-cyano-5-(4-methylphenyl) sulfonylisothiazole], the pest or weed control at 200 ppm in the assay on Botrytis cinerea fell in the range of 60 to 79%; in the assay on Phytophthora infestants, 95 to 100%; with Pyricularia oryzae, 95 to 100%; in [2], 95 to 100%.

As to `C#CCOc1nsc(S(=O)(=O)c2ccccc2)c1C#N` [Compound 104], the pest or weed control at 200 ppm in the assay with Botrytis cinerea is 60 to 79%; with Phytophthora infestants, 95 to 100%; in the assay with Pyricularia oryzae, 95 to 100%; in [2], 80 to 94%.

`COC(=O)COc1nsc(S(=O)(=O)c2ccccc2)c1C#N` [Compound 109]: the inhibition at 50 ppm (in the assay on Aspergillus niger; in the assay on Rhizopus nigricans; in the assay on Serpula lacrymans; in the assay on Alternaria mali; in the assay on Coriolus versicolor; in assay [1]) was 100% throughout. In addition, the inhibition at 50 ppm with Chaetomium globosum, with Fusarium oxysporum, with Tyromyces palustris and in the assay with Trichoderma viride was 100% throughout.

For the molecule `N#Cc1c(OC(F)F)nsc1S(=O)(=O)c1ccc(Cl)cc1` [Compound 111], the inhibition at 50 ppm in the assay on Aspergillus niger is 100%; in the assay with Rhizopus nigricans, 100%; in the assay with Serpula lacrymans, 85 to 99%; in the assay on Alternaria mali, 100%; in the assay with Coriolus versicolor it was 85 to 99%; in assay [1] it was 100%. Moreover, the inhibition at 50 ppm in the assay on Chaetomium globosum was 100%; with Fusarium oxysporum, 85 to 99%; with Tyromyces palustris, 100%; with Trichoderma viride, 100%.

For `Cc1ccc(Cl)cc1S(=O)(=O)c1snc(OC(F)F)c1C#N` [Compound 113], the inhibition at 50 ppm (in the assay with Aspergillus niger; in the assay with Rhizopus nigricans; in the assay with Serpula lacrymans; in the assay with Alternaria mali; with Coriolus versicolor; in assay [1]) was 100% throughout. Also, the inhibition at 50 ppm in the assay with Chaetomium globosum, in the assay on Fusarium oxysporum, with Tyromyces palustris and in the assay with Trichoderma viride was 100% each time.

Take `CC(C)(C)c1ccc(S(=O)(=O)c2snc(OC(F)F)c2C#N)cc1` [Compound 117]: the inhibition at 50 ppm in the assay with Aspergillus niger is 100%; with Rhizopus nigricans it was 100%; in the assay with Serpula lacrymans, 100%; with Alternaria mali, 85 to 99%; with Coriolus versicolor, 100%; in assay [1], 85 to 99%. The inhibition at 50 ppm in the assay on Chaetomium globosum is 100%; in the assay with Fusarium oxysporum, 85 to 99%; with Tyromyces palustris, 85 to 99%; in the assay with Trichoderma viride it was 100%.

Regarding `C=CCOc1nsc(S(=O)(=O)c2ccc(C)cc2)c1C#N` [Compound 119], the inhibition at 50 ppm in the assay on Aspergillus niger is 85 to 99%; in the assay with Rhizopus nigricans it was 100%; with Serpula lacrymans, 100%; in the assay with Alternaria mali, 85 to 99%; in the assay on Coriolus versicolor, 100%; in assay [1], 100%. For the same molecule, the inhibition at 50 ppm is 100% in the assay on Chaetomium globosum, 85 to 99% in the assay with Fusarium oxysporum, 85 to 99% in the assay with Tyromyces palustris and 100% in the assay on Trichoderma viride.

For `C#CCOc1nsc(S(=O)(=O)c2ccc(Cl)cc2)c1C#N` [Compound 120], the pest or weed control at 200 ppm with Botrytis cinerea is 60 to 79%; with Phytophthora infestants, 95 to 100%; in the assay with Pyricularia oryzae, 95 to 100%; in [2] it was 95 to 100%.

On to `CCOc1nsc(S(=O)(=O)C(F)F)c1C#N` [Compound 141], for which the pest or weed control at 200 ppm was in the range of 80 to 94% in the assay on Botrytis cinerea, 95 to 100% with Phytophthora infestants, 95 to 100% with Pyricularia oryzae and 95 to 100% in [2].

As to `CCC(C)Oc1nsc(S(=O)(=O)C(F)F)c1C#N` (stereo not drawn) [Compound 145], the pest or weed control at 200 ppm in the assay with Botrytis cinerea was in the range of 0 to 59%; in the assay with Phytophthora infestants, 95 to 100%; in the assay with Pyricularia oryzae it was 95 to 100%; in assay [2] it was 95 to 100%.
